Data taken from publication PMC12294753, “Development of INER-PP-F11N as the Peptide-Radionuclide Conjugate Drug Against CCK2 Receptor-Overexpressing Tumors” (International Journal of Molecular Sciences, 2025).
Like-named read-outs stand apart in the source and are kept apart here. Where a SMILES comes first, the peptide text is derived from it. [ ]: non-standard residue; d: D form. The star is where a group is joined. DOTA = O=C(O)CN1CCN(CC(=O)O)CCN(CC(=O)*)CCN(CC(=O)O)CC1; Butanoyl(4-(4-MePh)) = Cc1ccc(CCCC(=O)*)cc1; 4Amb = NCc1ccc(C(=O)O)cc1; Nle = CCCC[C@H](N)C(=O)O

Experiments:
[1] = test system: human gastric cancer ascites cells; set-up: method as in PMID 10494457, PMID 10188727; conditions: mouse models inoculated with human gastric cancer ascites cells; cited from earlier work
CCK2R = test system: CCK2R; set-up: method as in PMID 10494457, PMID 10188727; conditions: cited from earlier work
[2] = test system: human pancreatic cancer cells; set-up: method as in PMID 10636070, PMID 7813546; conditions: cited from earlier work
[3] = Histopathological examinations (H&E) of mice after radiolabeled drug administration; format: in vivo; conditions: light microscopy
Text: To investigate the pathological alterations in tumor-bearing mice receiving radiopharmaceuticals, […] tissues, including tumors, heart, liver, and kidneys, were collected. The specimens were first fixed using 10% buffered neutral formalin and then embedded in paraffin. Sections of 3–5 μm thickness were stained with H&E and examined using light microscopy (40 × and 20 ×).

[4] = Metabolic stability analysis (radio-HPLC) in PBS at 4 °C or FBS at 37 °C; format: in vitro ADME
Experimental: DOTA-PP-F11N, DOTA-INER-PP-F11N-1, and DOTA-INER-PP-F11N-2 were labeled with In-111 and Lu-177 for further experiments. The detection of free In-111 after ITLC extension was defined as 0% radiolabeling efficiency. […]
To measure the labeling efficiency, ITLC was performed on glass microfiber chromatography paper impregnated with a silica gel (Agilent Technologies, Santa Clara, CA, USA) as described previously. Briefly, the ITLC sheets were developed with 10% methanol as solvent (Rf free Lu-177 = 0, Rf Lu-177-labeled compounds = 1) and measured using a radioactive scanner (AR-2000 radio-TLC […] Imaging Scanner, Bioscan, France). The sample was mixed with acetonitrile at a 1:1 (v/v) ratio, followed by centrifugation at 16,000× g for 5 min. The resulting supernatant was subsequently analyzed using HPLC with UV (220[…]) and radio detector with a Zorbax SB-C18 column (Agilent Technologies, Santa Clara, CA, USA). The flow rate was 0.8 mL/min, with the gradient mobile phase going from 90% A […] buffer (0.1% TFA in water) and 10% B buffer (0.1% TFA in acetonitrile) to 90% B buffer […] within 20 min.

A431-CCK2R (−) cells = assay: In vitro binding and internalization assay, A431-CCK2R (−) cells; format: cell-based; conditions: 37 °C
Experimental: (§1) In vitro binding and internalization activities were measured using a gamma counter (WIZARD 1480, Perkin-Elmer). Briefly, A431-CCK2R (+) and A431-CCK2R (−) cells were seeded on 24-well plates (1 × 10^5 cells/well, Corning, NY, USA) for 12 h. The plated cells were treated with 30 ± 10 GBq/µmol of [^177Lu]Lu-DOTA-PP-F11N, [^177Lu]Lu-DOTA-INER-PP-F11N-1, or [^177Lu]Lu-DOTA-INER-PP-F11N-2 (1 mL/well) and then incubated at 37 °C for either 1 or 4 h. After incubation, the medium was collected, and the cells were then washed with ice-cold buffer. The medium and washed PBS were collected in tube 0. The washed cells were treated with glycine–HCl buffer (0.1 M, pH 3.0) and incubated for 10 min. After incubation, cells were washed again with glycine–HCl buffer. Both glycine-HCl buffer solutions were collected in tube 1. The washed cells were treated with 1 N NaOH (1 mL/well) and incubated for 10 min for cell lysis. After incubation, the cells were washed once with 1 N NaOH. The cell lysate solution was collected in tube 2. All tubes were analyzed using a gamma counter to detect radioactivity. Data were obtained from at least three independent experiments. The respective formulae for in vitro surface binding activity and internalization were as follows:Surface binding = tube 1/(tube 0 + tube 1 + tube 2) × 100%.Internalization = tube 2/(tube 0 + tube 1 + tube 2) × 100%.

A431-CCK2R (+) tumors [5] = assay: Therapeutic responses to Lu-177-labeled CCK2R analogs in CCK2R-expressing cancer-bearing mice; format: in vivo; conditions: 200 μCi intravenously
Experimental: (§2) To generate A431-CCK2R (+) and A431-CCK2R (−) tumor-bearing mice models, mice (3 per group) were inoculated subcutaneously with 6 × 10^6 cells, which were injected into the inner right back leg for A431-CCK2R (+) tumors and the left back leg for A431-CCK2R (−) tumors, respectively. These xenografts were monitored until the tumor volume reached approximately 200–500 mm^3 [57]. The mice were then randomized to subgroups for further experiments. The formula for calculating tumor volume (V) is V = 4/3πr^3.
(§3) We investigated therapeutic responses in mice receiving [^177Lu]Lu-DOTA-PP-F11N, [^177Lu]Lu-DOTA-INER-PP-F11N-1, or [^177Lu]Lu-DOTA-INER-PP-F11N-2. A431-CCK2R (+) and A431-CCK2R (−) cells were implanted subcutaneously into the right and left inner hind legs of NOD/SCID mice. Once the tumors reached a volume of 200–500 mm^3, the mice were intravenously injected with either 200 μCi of [^177Lu]Lu-DOTA-PP-F11N, [^177Lu]Lu-DOTA-INER-PP-F11N-1, [^177Lu]Lu-DOTA-INER-PP-F11N-2, or PBS (as a non-radioactive control). The NanoSPECT/CT® plus scanner system (Mediso Medical Imaging Systems; Budapest, Hungary) was utilized to detect and image tumors in the mouse models. Tumor volumes were measured twice a week for 4 weeks.

[6] = test system: A431-CCK2R (−)/A431-CCK2R (+) tumor-bearing mice; assay: NanoSPECT/CT imaging of tumor-bearing mice; format: in vivo
Experimental: as §2
The NanoSPECT/CT® plus scanner system (Mediso Medical Imaging Systems; Budapest, Hungary) was utilized to detect in vivo tumors in the in vivo animal models. Both A431-CCK2R (+) and A431-CCK2R (−) cancer cells were inoculated subcutaneously into the inner right leg and left back leg of the mice. Radiopharmaceuticals—[^111In]In-DOTA-PP-F11N, [^111In]In-DOTA-INER-PP-F11N-1, and [^111In]In-DOTA-INER-PP-F11N-2 (1 mCi)—were injected once the mean tumor volume reached approximately 200–500 mm^3. Inhalant (1–2% isoflurane) was used to anesthetize the mice during imaging acquisition. X-ray CT images and SPECT images were taken 4, 24, and 48 h after tail-vein injection. NanoSPECT imaging was acquired using nine multi-pinhole gamma detectors with high-resolution collimators. The energy window was set at 171 and 245 KeV ± 10%, the image size was set at 256 × 256, and the field of view was set at 60 mm × 100 mm.
For Lu-177, only 208 keV photons were used for imaging, with an energy window set at 208 keV ± 10%. Although Lu-177 also emits lower abundance photons at 113 keV, the 208 keV photon provides better image quality due to reduced scatter and higher energy resolution. Therefore, the gamma camera energy windows were specifically tailored to the photon emission profiles of each radionuclide to ensure optimal detection efficiency and image accuracy.
as §3

A431-CCK2R (+) tumors [7] = assay: Biodistribution study in tumor-bearing mice; format: in vivo; conditions: biodistribution studies
Experimental: as §2
(§4) Mice were sacrificed via CO2 asphyxiation 72 h after intravenous injection of 50–100 μCi (50–100 μL) of radiolabeled DOTA-PP-F11N, DOTA-INER-PP-F11N-1, or DOTA-INER-PP-F11N-2 [58]. Tumors and organs of interest were collected for further pathological examinations. The PerkinElmer 2480 Automatic Gamma Counter (PerkinElmer, Waltham, MA, USA) was used to measure radioactivity; the data are presented as the percentage injected dose per gram of tissue (%ID/g).

[8] = Biodistribution study in tumor-bearing mice; format: in vivo; conditions: mouse, intravenous, total radioactivity, 72 h after tail-vein injection, tumor-bearing mice
Experimental: as §2, §4

A431-CCK2R (+) cells = assay: In vitro binding and internalization assay, A431-CCK2R (+) cells; format: cell-based; set-up: surface binding activity / internalization activity: concentration or dose not given beside the values; conditions: for internalization activity / surface binding activity: A431-CCK2R (+) cells, 37 °C; for enhancement of internalization activity compared with PP-F11N: A431 CCK2R (+) cells, compared with conventional [^177Lu]Lu-DOTA-PP-F11N
Experimental: as §1

Compound: C[C@](Cc1c[nH]c2ccccc12)(NC(=O)OC1[C@H]2C[C@@H]3C[C@@H](C[C@H]1C3)C2)C(=O)NC[C@H](NC(=O)CCC(=O)O)c1ccccc1 (stereo partly shown) [CI-988]
- survival [1]: improve survival
- gastrin binding to CCK2R (CCK2R): block gastrin binding to CCK2R

Compound: Cc1cccc(NC(=O)N[C@@H]2N=C(c3ccccc3)c3ccccc3N(C)C2=O)c1 [L-365260]
- exogenous gastrin-induced proliferation [2]: inhibited

Compound: CCCC[C@H](NC(=O)[C@H](Cc1c[nH]c2ccccc12)NC(=O)CNC(=O)[C@H](Cc1ccc(O)cc1)NC(=O)[C@H](C)NC(=O)[C@@H](CCC(=O)O)NC(=O)[C@@H](CCC(=O)O)NC(=O)[C@@H](CCC(=O)O)NC(=O)[C@@H](CCC(=O)O)NC(=O)[C@@H](CCC(=O)O)NC(=O)[C@@H](CCC(=O)O)NC(=O)c1ccc(CNC(=O)[C@H](CCCCNC(=O)CCCc2ccc(C)cc2)NC(=O)CN2CCN(CC(=O)O)CCN(CC(=O)O)CCN(CC(=O)O)CC2)cc1)C(=O)N[C@@H](CC(=O)O)C(=O)N[C@@H](Cc1ccccc1)C(N)=O [[^177Lu]Lu-DOTA-INER-PP-F11N-1, metal not drawn] ({DOTA}-K(Butanoyl(4-(4-MePh)))[4Amb][dE][dE][dE][dE][dE][dE]AYGW[Nle]DF-NH2)
- histopathological changes in the kidneys [3]: no significant histopathological changes
- histopathological changes in the liver and heart [3]: no significant histopathological changes
- metabolic stability ([4]; 4 °C PBS, 144 h after Lu-177 labeling): more than 95%
- metabolic stability ([4]; Lu-177-labeled, 37 °C FBS, 144 h): > 99%
- internalization activity (A431-CCK2R (−) cells; 1 h): 0.32 ± 0.10 %IA/106 cells
- surface binding activity (A431-CCK2R (−) cells; 1 h): 1.08 ± 0.49 %IA/106 cells
- internalization activity (A431-CCK2R (−) cells; 4 h): 0.17 ± 0.03 %IA/106 cells
- tumor volume at D23 (A431-CCK2R (+) tumors [5]): 841.33 ± 165.70 mm^3
- radioactivity within the kidneys on NanoSPECT/CT ([6]; compared with Lu-177-labeled PP-F11N over the same period): significantly lower
- radiotracer accumulation in the tumor region on NanoSPECT/CT ([6]; tail-vein injection, Lu-177-labeled): avid radiotracer uptake within the tumor
- tumor-to-kidney ratio (A431-CCK2R (+) tumors [7]): favorable
- tissue uptake at 72 h ([8]; kidneys, read-out: radiotracer accumulation in the kidneys): 7.4 ± 2.3 %ID/g
- tissue uptake at 72 h ([8]; tumor (A431-CCK2R (+)), read-out: tumor uptake of radiopharmaceuticals): 1.14 ± 0.92 %ID/g
- internalization activity (A431-CCK2R (+) cells; 1 h): 45.32 ± 6.12%
- surface binding activity (A431-CCK2R (+) cells; 1 h): 5.93 ± 1.68%
- internalization activity (A431-CCK2R (+) cells; 4 h): 90.49 ± 5.65%
- surface binding activity (A431-CCK2R (+) cells; 4 h): 14.57 ± 4.06%
- enhancement of internalization activity compared with PP-F11N (A431-CCK2R (+) cells): 26.7%
- enhancement of internalization activity compared with PP-F11N (A431-CCK2R (+) cells; listed as 177Lu-DOTA-INER-PP-F11N-1): 27%
